We go through eleven compounds from patent US20260183407A1, “DYRK/CLK PROTACS AND USES THEREOF” (Arizona Board of Regents on Behalf of the University of …, priority 2022, published 2026).

The target of test [1] is T1, DYRK1A (Homo sapiens, UniProt Q13627).
T1 construct: purchased Eurofins; host or cells: E. coli BL21-derived (T7 phage display) or HEK-293
Kind of test: KdELECT kinase binding assay (Eurofins), DYRK1A. The conditions noted are these: 11-point 3-fold dilution series, qPCR readout; read-out: Binding Affinity (Kd) DYRK1A. Here is the method: (§1) KDs were obtained from Eurofins who used the following procedure: Kinase tagged T7 phase strains were prepared in an E. coli host derived from the BL21 strain. E. coli were grown to log-phase and infected with T7 phage and incubated with shaking at 32° C. until lysis. The lysates were centrifuged and filtered to remove cell debris. The remaining kinases were produced in HEK-293 cells and subsequently tagged with DNA for qPCR detection. Streptavidin-coated magnetic beads were treated with biotinylated small molecule ligands for 30 minutes at room temperature to generate affinity resins for kinase assays. The liganded beads were blocked with excess biotin and washed with locking buffer (SeaBlock (Pierce), 1% BSA, 0.05% Tween 20, 1 mM DTT) to remove unbound ligand and to reduce non-specific binding. Binding reactions were assembled by combining kinases, liganded affinity beads, and test compounds in 1× binding buffer (20% SeaBlock, 0.17× PBS, 0.05% Tween 20, 6 mM DTT). Test compounds were prepared as 111X stocks in 100% DMSO. Kds were determined using a 11-poin 3-fold compound dilution series with three DMSO control points. All compounds for Kd measurements are distributed by acoustic transfer (non-contact dispensing) in 100% DMSO. The compounds were then diluted directly into the assays such that the final concentration of DMSO was 0.9%. All reactions performed in polypropylene 384-well plate. Each was a final volume of 0.02 mL. The assay plates were incubated at room temperature with shaking for 1 hour and the affinity beads were washed with wash buffer (1×PBS, 0.05% Tween 20). The beads were then resuspended in elution buffer (1X PBS, 0.05% Tween 20, 0.5 µM nonbiotinylated affinity ligand) and incubated at room temperature with shaking for 30 minutes. The kinase concentration in the eluates was measured by qPCR.

Test [2] has as its target T1, DYRK1A. The experiment in a line: HiBiT split luciferase assay of targeted degradation of DYRK1A in Flp-In T-REx 293 cells. The conditions noted are these: 300 nM compound, 24 h, HiBiT-tagged DYRK1A in Flp-In T-REx 293 cells, normalized to vehicle; read-out: Relative Degradation at 300 nM DYRK1A. The class given is cell-based. The text has this:
The Flp-In T-REx 293 Cell Line and the pcDNA5/FRT/TO vector (Invitrogen) were used to generate stable cell clones for tetracyclin-inducible expression of DYRK1A and DYRK1B. These cells contain a single stably integrated Flp recognition target (FRT) site, which allows for site-specific integration of the expression cassette by the Flp (Flippase) recombinase. DYRK1 constructs were designed to contain a C-terminal HiBiT tag for quantitative detection of HiBiT-tagged proteins in cellular lysates with the help a split luciferase assay (Nano-Glo HiBiT Lytic Detection System, Promega). To monitor the targeted degradation of DYRK1A or DYRK1B, cells were seeded in 96-well plates (10,000 cells/per well) and treated with doxycyclineinal concentration 2 μg/ml) to induce DYRK1 expression. Compounds with presumed PROTAC activity were administered 24 h after seeding. After further incubation for 24 h, cells were grossly and microscopically inspected for overt toxicity. Cells were lysed in 100 μL ice-cold passive lysis buffer (PLB, Promega) by orbital shaking (30 min on ice) before lysates were centrifuged in PCR tube (20 min 20,000 g, RT). A 10 μl aliquot of the supernatant was subjected to the HiBiT lytic assay. Luminescence was quantified in an Orion Microplate luminometer (Berthold Detection System, Germany). All compounds were tested in duplicate or triplicate wells (technical replicates) and at least two independent experiments. Relative degradation was calculated by normalization to vehicle-treated control samples.

The target of another test is T2, DYRK1B (Homo sapiens, UniProt Q9Y463).
T2 construct: purchased Eurofins; host or cells: E. coli BL21-derived (T7 phage display) or HEK-293
Kind of test: KdELECT kinase binding assay (Eurofins), DYRK1B. The conditions noted are these: 11-point 3-fold dilution series, qPCR readout; read-out: Binding Affinity (Kd) DYRK1B. Here is the method: as §1

T2 sequence (Q9Y463 whole entry, species assumed): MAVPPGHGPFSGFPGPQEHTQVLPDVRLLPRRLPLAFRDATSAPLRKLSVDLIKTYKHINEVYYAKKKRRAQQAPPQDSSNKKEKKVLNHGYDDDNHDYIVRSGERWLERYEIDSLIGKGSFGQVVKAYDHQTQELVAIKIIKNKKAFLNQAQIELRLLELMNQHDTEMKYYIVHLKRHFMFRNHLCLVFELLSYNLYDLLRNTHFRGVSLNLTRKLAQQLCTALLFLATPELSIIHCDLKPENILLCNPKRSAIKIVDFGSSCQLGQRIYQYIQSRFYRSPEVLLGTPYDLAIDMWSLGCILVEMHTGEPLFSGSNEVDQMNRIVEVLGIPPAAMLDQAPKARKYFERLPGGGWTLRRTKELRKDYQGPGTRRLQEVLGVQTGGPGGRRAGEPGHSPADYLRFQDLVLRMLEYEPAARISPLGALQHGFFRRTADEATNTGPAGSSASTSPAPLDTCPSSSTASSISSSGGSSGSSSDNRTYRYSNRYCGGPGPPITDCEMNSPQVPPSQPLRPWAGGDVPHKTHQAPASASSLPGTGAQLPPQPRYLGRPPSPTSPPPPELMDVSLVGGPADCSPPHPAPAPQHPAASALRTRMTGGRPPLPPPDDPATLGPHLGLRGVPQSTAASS

Take `Cc1nc2ccc(-c3ccnc(N)c3)nc2n1-c1ccc(N2CCN(CCOCCOCCOCCC(=O)N3CCN(c4ccc5c(c4)C(=O)N(C4CCC(=O)NC4=O)C5=O)CC3)CC2)c(F)c1` (stereo not drawn) [Compound 9, 5-(4-(3-(2-(2-(2-(4-(4-(5-(2-aminopyridin-4-yl)-2-methyl-3H-imidazo[4,5-b]pyridin-3-yl)-2-fluorophenyl)piperazin-1-yl)ethoxy)ethoxy)ethoxy)propanoyl)piperazin-1-yl)-2-(2,6-dioxopiperidin-3-yl)isoindoline-1,3-dione]: the equilibrium dissociation constant (Kd) at DYRK1A [1] was below 0.01 µM. Moreover, the inhibition at 0.3 µM on DYRK1A [2] was below 30%.

On to `Cc1nc2ccc(-c3ccnc(N)c3)nc2n1-c1cc(F)c(N2CCN(C3CCN(CC#Cc4ccc(N5CCC(C(=O)N6CCC(n7cc(CNc8cccc9c8C(=O)N(C8CCC(=O)NC8=O)C9=O)cn7)CC6)CC5)nc4)CC3)CC2)c(F)c1` (stereo not drawn) [Compound 36, 4-(((1-(1-(1-(5-(3-(4-(4-(4-(5-(2-aminopyridin-4-yl)-2-methyl-3H-imidazo[4,5-b]pyridin-3-yl)-2,6-difluorophenyl)piperazin-1-yl)piperidin-1-yl)prop-1-yn-1-yl)pyridin-2-yl)piperidine-4-carbonyl)piperidin-4-yl)-1H-pyrazol-4-yl)methyl)amino)-2-(2,6-dioxopiperidin-3-yl)isoindoline-1,3-dione], for which the Kd at DYRK1B and at DYRK1A [1] was below 0.01 µM throughout.

As to `Cc1nc2ccc(-c3ccnc(N)c3)nc2n1-c1ccc(N2CCN(CC#Cc3ccc(N4CCC(O)(C(=O)N5CCC(n6cc(CNc7cccc8c7C(=O)N(C7CCC(=O)NC7=O)C8=O)cn6)CC5)CC4)nc3)CC2)c(F)c1` (stereo not drawn) [Compound 33, 4-(((1-(1-(1-(5-(3-(4-(4-(5-(2-aminopyridin-4-yl)-2-methyl-3H-imidazo[4,5-b]pyridin-3-yl)-2-fluorophenyl)piperazin-1-yl)prop-1-yn-1-yl)pyridin-2-yl)-4-hydroxypiperidine-4-carbonyl)piperidin-4-yl)-1H-pyrazol-4-yl)methyl)amino)-2-(2,6-dioxopiperidin-3-yl)isoindoline-1,3-dione], the inhibition at 0.3 µM at DYRK1A [2] was above 60%.

`Cc1nc2ccc(-c3ccnc(N)c3)nc2n1-c1cc(F)c(N2CCN(CC#Cc3ccc(N4CCC(C(=O)N5CCC(n6cc(COc7ccc(C8CCC(=O)NC8=O)cc7)cn6)CC5)CC4)nc3)CC2)c(F)c1` (stereo not drawn) [Compound 34, 3-(4-((1-(1-(1-(5-(3-(4-(4-(5-(2-aminopyridin-4-yl)-2-methyl-3H-imidazo[4,5-b]pyridin-3-yl)-2,6-difluorophenyl)piperazin-1-yl)prop-1-yn-1-yl)pyridin-2-yl)piperidine-4-carbonyl)piperidin-4-yl)-1H-pyrazol-4-yl)methoxy)phenyl)piperidine-2,6-dione]: the Kd at DYRK1B and on DYRK1A [1] was below 0.01 µM throughout.

Turning to `Cc1nc2ccc(-c3ccnc(N)c3)nc2n1-c1cc(F)c(N2C[C@@H](C)N(CC#Cc3ccc(N4CCC(C(=O)N5CCC(n6cc(CNc7cccc8c7C(=O)N(C7CCC(=O)NC7=O)C8=O)cn6)CC5)CC4)nc3)[C@@H](C)C2)c(F)c1` (stereo partly drawn) [Compound 37, 4-(((1-(1-(1-(5-(3-((2S,6R)-4-(4-(5-(2-aminopyridin-4-yl)-2-methyl-3H-imidazo[4,5-b]pyridin-3-yl)-2,6-difluorophenyl)-2,6-dimethylpiperazin-1-yl)prop-1-yn-1-yl)pyridin-2-yl)piperidine-4-carbonyl)piperidin-4-yl)-1H-pyrazol-4-yl)methyl)amino)-2-(2,6-dioxopiperidin-3-yl)isoindoline-1,3-dione], the Kd was 0.01 to 0.1 µM on DYRK1B and below 0.01 µM at DYRK1A [1].

As for `Cc1nc2ccc(-c3ccnc(N)c3)nc2n1-c1cc(F)c(N2CC3(CN(CC#Cc4ccc(N5CCC(C(=O)N6CCC(n7cc(CNc8cccc9c8C(=O)N(C8CCC(=O)NC8=O)C9=O)cn7)CC6)CC5)nc4)C3)C2)c(F)c1` (stereo not drawn) [Compound 40, 4-(((1-(1-(1-(5-(3-(6-(4-(5-(2-aminopyridin-4-yl)-2-methyl-3H-imidazo[4,5-b]pyridin-3-yl)-2,6-difluorophenyl)-2,6-diazaspiro[3.3]heptan-2-yl)prop-1-yn-1-yl)pyridin-2-yl)piperidine-4-carbonyl)piperidin-4-yl)-1H-pyrazol-4-yl)methyl)amino)-2-(2,6-dioxopiperidin-3-yl)isoindoline-1,3-dione], the dissociation constant Kd on DYRK1B is 0.01 to 0.1 µM; on DYRK1A [1] it was below 0.01 µM.

With `Cc1nc2ccc(-c3ccnc(N)c3)nc2n1-c1ccc(N2CCN(C(=O)CCCCCN3CCN(Cc4ccc(CNc5cccc6c5CN(C5CCC(=O)NC5=O)C6=O)cc4)CC3)CC2)c(F)c1` (stereo not drawn) [Compound 15, 3-(4-((4-((4-(6-(4-(4-(5-(2-aminopyridin-4-yl)-2-methyl-3H-imidazo[4,5-b]pyridin-3-yl)-2-fluorophenyl)piperazin-1-yl)-6-oxohexyl)piperazin-1-yl)methyl)benzyl)amino)-1-oxoisoindolin-2-yl)piperidine-2,6-dione], the dissociation constant (Kd) on DYRK1A [1] was below 0.01 µM. Also, on DYRK1A [2], the inhibition at 0.3 µM is below 30%.

Regarding `Cc1nc2ccc(-c3ccnc(N)c3)nc2n1-c1cc(F)c(N2CCN(C3CN(CC#Cc4ccc(N5CCC(C(=O)N6CCC(n7cc(CNc8cccc9c8C(=O)N(C8CCC(=O)NC8=O)C9=O)cn7)CC6)CC5)nc4)C3)CC2)c(F)c1` (stereo not drawn) [Compound 39, 4-(((1-(1-(1-(5-(3-(3-(4-(4-(5-(2-aminopyridin-4-yl)-2-methyl-3H-imidazo[4,5-b]pyridin-3-yl)-2,6-difluorophenyl)piperazin-1-yl)azetidin-1-yl)prop-1-yn-1-yl)pyridin-2-yl)piperidine-4-carbonyl)piperidin-4-yl)-1H-pyrazol-4-yl)methyl)amino)-2-(2,6-dioxopiperidin-3-yl)isoindoline-1,3-dione], the Kd at DYRK1B and at DYRK1A [1] was below 0.01 µM each time.

Regarding `COc1cc(-n2c(C)nc3ccc(-c4ccnc(N)c4)nc32)ccc1N1CCN(CCC#Cc2ccc(N3CCC(C(=O)N4CCC(n5cc(CNc6cccc7c6C(=O)N(C6CCC(=O)NC6=O)C7=O)cn5)CC4)CC3)nc2)CC1` (stereo not drawn) [Compound 38, 4-(((1-(1-(1-(5-(4-(4-(4-(5-(2-aminopyridin-4-yl)-2-methyl-3H-imidazo[4,5-b]pyridin-3-yl)-2-methoxyphenyl)piperazin-1-yl)but-1-yn-1-yl)pyridin-2-yl)piperidine-4-carbonyl)piperidin-4-yl)-1H-pyrazol-4-yl)methyl)amino)-2-(2,6-dioxopiperidin-3-yl)isoindoline-1,3-dione], the equilibrium dissociation constant (Kd) on DYRK1B was 0.01 to 0.1 µM; on DYRK1A [1] it was below 0.01 µM.

Consider `Cc1nc2ccc(-c3ccnc(N)c3)nc2n1-c1ccc(N2CCN(CCOCCOCCOCCC(=O)NC3CN(c4ccc5c(c4)C(=O)N(C4CCC(=O)NC4=O)C5=O)C3)CC2)c(F)c1` (stereo not drawn) [Compound 8, 3-(2-(2-(2-(4-(4-(5-(2-aminopyridin-4-yl)-2-methyl-3H-imidazo[4,5-b]pyridin-3-yl)-2-fluorophenyl)piperazin-1-yl)ethoxy)ethoxy)ethoxy)-N-(1-(2-(2,6-dioxopiperidin-3-yl)-1,3-dioxoisoindolin-5-yl)azetidin-3-yl)propanamide], for which the Kd on DYRK1A [1] is below 0.01 µM. Moreover, on DYRK1A [2], the inhibition at 0.3 µM was below 30%.

As to `Cc1nc2ccc(-c3ccnc(N)c3)nc2n1-c1ccc(N2CCN(C(=O)CN3CCC(CC(=O)N4CCC(n5cc(CNc6cccc7c6C(=O)N(C6CCC(=O)NC6=O)C7=O)cn5)CC4)CC3)CC2)c(F)c1` (stereo not drawn) [Compound 17, 4-(((1-(1-(2-(1-(2-(4-(4-(5-(2-aminopyridin-4-yl)-2-methyl-3H-imidazo[4,5-b]pyridin-3-yl)-2-fluorophenyl)piperazin-1-yl)-2-oxoethyl)piperidin-4-yl)acetyl)piperidin-4-yl)-1H-pyrazol-4-yl)methyl)amino)-2-(2,6-dioxopiperidin-3-yl)isoindoline-1,3-dione], the dissociation constant Kd at DYRK1A [1] was below 0.01 µM. Moreover, the inhibition at 0.3 µM at DYRK1A [2] is below 30%.
